Results on 1 molecule are retold here after patent US12264185B2, “Stabilized BCL9 peptides for treatment of aberrant Wnt signaling” (WntRx Pharmaceuticals Inc., priority 2015, dated 2025).

In series [1] the test system is CT26 cells. As to the kind of experiment: CT26 syngeneic mouse model of colon cancer (Balb/c). It is filed as in vivo, mice. As to the method:
The syngeneic mouse model of colon cancer using CT26 was then assessed. Male Balb/c mice were injected subcutaneously in the right flank with 5×10^4 CT26 cells each at approximately 5 weeks of age. […] Eight mice were included in each treatment group.
The whole blood was taken from each mouse. Lymphocytes were purified from the blood samples by Ficoll, and the cells were stained with fluorescent anti-CD4 antibody. Data were measured by flow cytometry.
As described above, the whole blood was taken from each mouse. Lymphocytes were purified from blood by Ficoll, and the cells were stained with fluorescent anti-CD8 antibody. Data were measured by flow cytometry.
To further assess whether WX-024 is capable of modulating a tumor microenvironment, tumor and blood samples were collected in anticoagulation tubes at the end of the study. Single cells separation was performed and then cells were stained for FACS analysis. For cell surface staining, CD45-PerCP-Cy5, CD4-FITC, CD8-PE-Cy7, and CD25-PE were used. For intranuclear staining, cells were permeabilized overnight and then stained with Foxp3-APC for 60 minutes.
The in vivo efficacy of WX-035 in treating a cancer was assessed in a syngeneic mouse model, following the procedures described in Example 5.3. Trametinib, a known MEK inhibitor, was used as a comparison. Briefly, balb/c mice were inoculated with CT26 and treatment started when tumor volume reached to about 100 mm^3. The mice were then divided into three groups and began administered with a vehicle, 40 mg/kg WX-035, or 1 mg/kg trametinib for 7 consecutive days.
At the end of the study described in Example 9.2, a tumor sample from each mouse was collected to assess the effect of WX-035 in modulating T cell activation. The FACS analysis of each tumor sample was performed following the procedure described in Example 5. A shown in FIG. 36A, treatment with WX-035 reduced the total amount of CD45^+ cells. […] Likewise, Foxp3^+ CD25^+ T cells were reduced by WX-035 treatment (FIG. 36C). […] Furthermore, by increasing the ratio of cytotoxic T cells over regulatory T cells, WX-035 may induce a microenvironment that favors an immune reaction beneficial for tumor treatment. Of note, the samples collected from this experiment were also assessed for LGR5 expression.

Series [2] deals with B16F10 cells. As to the kind of experiment: B16F10 syngeneic model in C57BL/6 mice. Type of series: in vivo. The method, then: C57BL/6 mice were inoculated with B16F10 cells. Female C57BL/6 mice aged 4-5 weeks were inoculated with B16F10 cells (2×10^5 cells in 0.05 ml per mouse) in the right flank. When the average tumor size of the mice reached 100 mm^3, the mice were divided into two groups (N=6). […] The treatment was intraperitoneally administered daily for 14 consecutive days.
The treatment was intraperitoneally administered daily for 12 consecutive days. At the end of the treatment, the mice were sacrificed and tumor and blood samples were collected in anticoagulation tubes. Single cell separation was performed for each sample and then stained for FACS analysis. For cell surface staining, CD45-PerCP-Cy5, CD4-FITC, CD8-PE-Cy7, and CD25-PE were used. The tumor samples were then stained with either an anti-CD4 antibody or an anti-CD8 antibody to assess the presence of T cells in the tumor samples. The tumor samples were also stained with an anti-CD194 antibody and anti-CD196 antibody to assess the presence of T helper 17 cells in the tumor samples.
The process of constructing WX-039 is described in Example 10. C57BL/6 mice were inoculated with B16F10 cells. […] The treatment was intraperitoneally administered daily for 12 consecutive days. At the end of the treatment, the mice were sacrificed and tumor and blood samples were collected in anticoagulation tubes. Tumor cells collected from the experiment were stained as described above and also with anti-CD205 antibody to assess whether WX compounds are capable of modulating dendritic cells.
The ability of WX-039 to suppress tumor growth was assessed in the animal model described in Example 5.4. Briefly, C57BL/6 mice were inoculated with B16 cells. Female C57BL/6 mice aged 5 weeks were inoculated with B16F10 cells (2×10^5 cells in 0.05 ml per mouse) in the right flank. When the average tumor size of the mice reached 100 mm^3, the mice were divided into two groups (N=3). The first group was administered 60 mg/kg WX-039 while the second group was treated with a vehicle. The treatment was intraperitoneally administered daily for 12 consecutive days.

Series [3] is described as follows: Toxicology study, 14 days i.v., female balb/c mice. Type of series: in vivo. The method, then:
At the end of the study, the mice were sacrificed and various major organs were collected. The tissue samples were treated and processed as described in Example 5.5. […] The body weight of each moue was monitored throughout the study and the average body weight of each treatment group is shown in FIG. 30B. […] At the end of the study, blood from each mouse was also collected for serum chemistry and hematological analysis (complete blood cell count analysis).

Series [4] can be described thus: Pharmacokinetics in male ICR mice. The note with it: mouse, plasma, 5 mg/kg.
Description: The tail vein was used for i.v. injections. […] Following injections, blood samples were obtained via the retro-orbital vein at 5 min, 1, 2, 4, 6, 8, 12, and 24 hours postdose. Plasma was obtained from the blood samples following mixing with sodium heparin and centrifugation.
LC analysis was done using an Agilent 100 HPLC. MS analysis was done using an AB Sciex API 4000. Calibration standards were prepared by serial dilution.
The maximum observed concentration (Cmax), terminal half-life (T1/2), total body clearance (CL), volume of distribution (Vz), area under the curve from the time of dosing to the last measurable concentration (AUC0-t), area under the curve from the time of dosing extrapolated to infinity (AUC0-inf), and bioavailability were calculated using noncompartmental analysis modules in the FDA-certified pharmacokinetic program WinNonlin Professional v5.2 (Pharsight).
Briefly, the mice were administered 1 mg/kg or 5 mg/kg intravenously, or 5 mg/kg intraperitoneally. Blood samples were collected at 15 min, 1, 2, 3, 6, 8, 12, and 24 hours post administration.
A short description of series [5]: Preliminary stability study of salt form. It is filed as physicochemical. The conditions noted are these: trifluroacetic acid salt form, 2-8° C. and room temperature, at least one month.
Series [6] concerns Wnt/β-catenin signaling. As to the kind of experiment: GeneBLAzer beta-lactamase Wnt transcription reporter assay, LEF/TCF-bla HCT-116 cells. It is filed as cell-based. The source says: ICG001 was used as a comparison. The GeneBLAzer uses CellSensor™ LEF/TCF-bla HCT-116 cells that contain a beta-lactamase (BLA) reporter gene under the control of the β-catenin/LEF/TCF response element stably integrated into HCT-116 cells, as shown in FIG. 5A. These cells constitutively express beta-lactamase and can be used to detect agonists and antagonists of the Wnt/β-catenin signaling pathway. The GeneBLAzer assay provides a ratiometric reporter response involving a two-color (blue/green) readout of stimulated and unstimulated cells.
LEF/TCF-bla HCT-116 cells were plated in assay medium (Invitrogen) on clear-bottom plates and incubated overnight at 37° C. […] Cells were next incubated with the Wnt agonist, mWnt3a (provided in the GeneBLAzer kit) for 5 hours at 37° C. Substrate mixture (containing LiveBLAzer™ B/G substrate that employs CCF4-AM, a FRET substrate for beta-lactamase) was added to the wells, and the plate was incubated for 2.5 hours at room temperature in the dark. Black-walled, clear-bottom, 384-well plates (Corning Costar) were used with scanning done with a Spectramax M2. Plates were scanned first (Scan 1 in the blue channel) with excitation filter 409/20 nm and emission filter 460/40 nm. Plates were then scanned (Scan 2 in the green channel) with excitation filer 409/20 nm and emission filter 530/30 nm.
For orientation: A reporter such as luciferase makes a cellular process visible.

The mark [7] stands for this setting: 20 mg/kg, after 2 weeks of daily dosing.
The mark [8] stands for this setting: 20 mg/kg WX-024 or 60 mg/kg WX-039 i.p. daily, 12 days.

pIC50: −log10 of the molar value. Where “and” joins values, the source holds several entries; their conditions need not be identical. Equal values may be shown once. Read-outs that look alike come from different tables or passages of the source.

In the case of `CC[C@H](C)[C@@H]1NC(=O)[C@@](C)(NC(=O)[C@H](CCCNC(=N)N)NC(=O)[C@H](CC(C)C)NC(=O)[C@@H](NC(=O)[C@H](CCC(N)=O)NC(=O)[C@H](CC(C)C)NC(C)=O)[C@@H](C)O)CCCC=CCCC[C@@](C)(C(=O)N[C@@H](CC(C)C)C(=O)N[C@@H](Cc2ccc3ccccc3c2)C(N)=O)NC(=O)[C@H](CCCNC(=N)N)NC(=O)[C@H](CCC(N)=O)NC1=O` [WX-024, LQTLRXaa1IQRXaa2L], the “tumor volume over time compared to vehicle” value in series [1] (20 mg/kg i.p. daily, 14 days) is “substantially lower”. In addition, in series [1] (20 mg/kg i.p. daily, after 3 days of dosing), the “tumor growth inhibition (TGI)” value was 89.2%. Besides, in series [1] (20 mg/kg i.p. daily, after 12 days of dosing), the “tumor growth inhibition (TGI)” value is on record as 70.0%. Moreover, the “active β-catenin expression in tumors” value in series [1] (20 mg/kg, 14 days) is listed as “capable of suppressing active β-catenin expression in tumors”. Also, in series [1] (setting [7]), the “CD4+ T cell counts in blood” value is “increase” and the “CD8+ T cell counts in blood” value was “increase”. Further, the “regulatory T cells in CD4+ T cell populations in tumor” value in series [1] (20 mg/kg, end of study) is listed as “significantly reduced”. In series [2] (setting [8]), the “T helper 17 cells in tumor” value is “more effective than WX-039” and the “dendritic cells (CD205+) in tumor” value is “significantly reduced”. Besides, in series [2] (25 mg/kg i.p. daily, 12 days), the “CD4+ positive cells in tumor samples” value is on record as “increased” and the “CD8+ positive cells in tumor samples” value is “increased”. Moreover, the “tumor growth compared to vehicle” value in series [2] (25 mg/kg i.p. daily, 14 days) was “effectively reduced tumor growth”. Besides, the “blood cell count profile vs vehicle” value in series [3] (20 mg/kg i.v. daily) is “did not differ significantly”. Further, in series [3] (10, 15 or 20 mg/kg i.v. daily), the average body weight result was “stabilized and was maintained throughout the study”; the food consumption entry is reported as “recovered to near baseline levels with continued treatment”. In series [4] (ip), the bioavailability amounted to 73.6%. Further, in series [4] (iv), the highest concentration (Cmax) is 47400 ng/mL and > 30 µM. Further, the stability result in series [5] was “stable”. Also, in series [6] (LEF/TCF-bla HCT-116 cells, read-out: IC50, Wnt transcription), the pIC50 is 6.72 and ~6.70. In addition, the negative-log IC50 (pIC50) in series [6] (acetate salt form, read-out: IC50, Wnt transcription inhibition) was 6.53. Besides, the negative-log IC50 (pIC50) in series [6] (hydrochloric salt, read-out: IC50, Wnt transcription inhibition) was 6.50.

A word on the bioavailability: it is dose-corrected exposure relative to a reference, in per cent. By Cmax is commonly meant the maximum level reached in the sampled fluid or tissue. In general, pIC50 refers to −log10 of the IC50, conventionally taken in molar units.
